Results as given in US3934024A, “Method of producing analgesia and compositions useful therein” (Sharps Associates, priority 1975, dated 1976).

Experiments:
rat = rat tail flick test for analgesic activity; assay type: in vivo; conditions: oral, 95% C.L. = 0.9 - 4.8
Text: In the rat tail flick test for analgesic activity [D'Amour and Smith, J. Pharmacol. Exper. Therap.

mice = experiment: Acetic acid writhing test in mice (oral); assay type: in vivo; conditions: for Percent inhibition: acetic acid writhing, writhes counted for 20 minutes beginning 5 minutes after acid injection
Description: The analgesic activity of the compound was evaluated in an acetic acid writhing test. The acetic acid writhing test used was modified from that described by Whittle, Brit J. Pharmacol., 22, 296 (1964). The number of writhes were counted for a 20 minute period beginning 5 minutes after the injection of the acid. Analgetic potency was calculated from the difference between the test groups and their controls.
Acetic acid writhing test in mice (oral)

**Q.** With `CCCCCC(C)C(C)c1cc(O)c2c(c1)OC(C)(C)C1=C2CCCS1` (stereo not drawn) [Compound I, 1,2-dihydro-5,5-dimethyl-10-hydroxy-8-(3-methyl-2-octyl)-3H,5H-thiopyrano[2,3-c][1]benzopyran] as the compound, how does the ED50 (rat) read?
**A.** Its ED50 is 2.7 mg/kg.

**Q.** What about the ED50 (mice; Mus musculus, oral, 95% C.L. = 9.2 - 12.4) of the same compound?
**A.** The ED50 was 10.8 mg/kg.

**Q.** What about the Percent inhibition (mice; 5 mg/kg p.o.) of the same compound?
**A.** Its Percent inhibition is 20.7%.

**Q.** And the Percent inhibition (mice; 10 mg/kg p.o.)?
**A.** The Percent inhibition was 48.9%.

**Q.** And the Percent inhibition (mice; 20 mg/kg p.o.)?
**A.** Its Percent inhibition is 74.0%.

**Q.** What about the Percent inhibition (mice; 40 mg/kg p.o.) of the same compound?
**A.** The Percent inhibition was 95.6%.
